From ChEMBL document CHEMBL6177929, “Synthesis and screening of novel 2,4-bis substituted quinazolines as tubulin polymerization promoters and antiproliferative agents” (RSC Med Chem, 2025)
Active and inactive are the calls of the source. The calls are words filed in the database; no cut-off is given here.

Columns and labels:
[1] = tested on: HCT-116; assay: Antiproliferative activity against human HCT-116 cells assessed as reduction in cell viability incubated for 48 hrs by MTT assay; type: functional, cell-based; settings: HCT-116, 48 h
[2] = tested on: MCF7; assay: Antiproliferative activity against human MCF7 cells assessed as reduction in cell viability incubated for 48 hrs by MTT assay; type: functional, cell-based; settings: MCF7, 48 h
[3] = tested on: SH-SY5Y; assay: Antiproliferative activity against human SH-SY5Y cells assessed as reduction in cell viability incubated for 48 hrs by MTT assay; type: functional, cell-based
[4] = tested on: SH-SY5Y; assay: Induction of cell cycle arrest in human SH-SY5Y cells assessed as accumulation of cells at S phase at 5 uM incubated for 48 hrs by LSRFortessa cell analyzer (reference value: 16.2%); type: functional
[5] = tested on: SH-SY5Y; assay: Induction of apoptosis in human SH-SY5Y cells assessed as early apoptotic cells at 5 uM incubated for 48 hrs by Annexin V-FITC/PI staining based flow cytometry analysis (reference value: 2.0%); type: functional
[6] = tested on: SH-SY5Y; assay: Induction of apoptosis in human SH-SY5Y cells assessed as viable cells at 5 uM incubated for 48 hrs by Annexin V-FITC/PI staining based flow cytometry analysis (reference value: 91.3%); type: functional; settings: read-out: Activity
[7] = tested on: SH-SY5Y; assay: Induction of apoptosis in human SH-SY5Y cells assessed as necrotic cells at 5 uM incubated for 48 hrs by Annexin V-FITC/PI staining based flow cytometry analysis (reference value: 0.7%); type: functional
[8] = tested on: SH-SY5Y; assay: Induction of apoptosis in human SH-SY5Y cells assessed as late apoptotic cells at 5 uM incubated for 48 hrs by Annexin V-FITC/PI staining based flow cytometry analysis (reference value: 3.0%); type: functional
[9] = tested on: SH-SY5Y; assay: Induction of cell cycle arrest in human SH-SY5Y cells assessed as accumulation of cells at G2/M phase at 5 uM incubated for 48 hrs by LSRFortessa cell analyzer (reference value: 28.4%); type: functional
[10] = tested on: SH-SY5Y; assay: Induction of cell cycle arrest in human SH-SY5Y cells assessed as accumulation of cells at G1/G0 phase at 5 uM incubated for 48 hrs by LSRFortessa cell analyzer (reference value: 50.1%); type: functional
[11] = tested on: HEK-293T; assay: Cytotoxicity against human HEK293T cells at 25 uM incubated for 48 hrs by MTT assay; type: toxicity, cell-based
[12] = target: T1, Tubulin (Homo sapiens) (UniProt P68371+Q9H4B7+P0DPH7+P68366+Q13509+Q71U36+P04350+Q3ZCM7+P07437+P68363+Q9BQE3+Q6PEY2+Q13885+Q9BVA1+Q9BUF5); assay: Inhibition of tubulin polymerization (unknown origin) at 5 uM incubated for 60 mins measured every 1 mins by spectrophotometric analysis; type: protein-complex assay
[13] = tested on: SH-SY5Y; assay: Induction of mitochondrial membrane potential in human SH-SY5Y cells assessed as mitochondria depolarization at 5 uM incubated for 48 hrs by synergy H1 microplate reader analysis; type: functional, cell-based
[14] = target: T1, Tubulin (Homo sapiens); assay: Inhibition of tubulin polymerization (unknown origin) at 1 uM incubated for 60 mins measured every 1 mins by spectrophotometric analysis; type: protein-complex assay

Compound | IC50 [1] | IC50 [2] | IC50 [3] | inhibition [12] | inhibition [14] | Activity [4] | Activity [5] | viability at 5 µM [6] | Activity [7] | Activity [8] | Activity [9] | Activity [10] | Activity [11] | Activity [13]
CN1CCN(c2nc(N3CCN(C)CC3)c3ccccc3n2)CC1 | 20.7 µM | > 25 µM | 23.8 µM |  |  |  |  |  |  |  |  |  |  | 
COc1cc2c(c(OC)c1OC)-c1ccc(OC)c(=O)cc1[C@@H](NC(C)=O)CC2 [COLCHICINE] | 1.65 µM | 4.48 µM | 6.82 µM |  |  | 4.1% | 6.5% | 35.1% | 3.9% | 54.5% | 90% | 5.1% |  | 
c1ccc(N2CCN(c3nc(N4CCN(c5ccccc5)CC4)c4ccccc4n3)CC2)cc1 | 9.19 µM | 12.8 µM | > 25 µM |  |  |  |  |  |  |  |  |  |  | 
c1ccc(CN2CCN(c3nc(N4CCN(Cc5ccccc5)CC4)c4ccccc4n3)CC2)cc1 | > 25 µM | 21.8 µM | > 25 µM |  |  |  |  |  |  |  |  |  |  | 
c1ccc2c(-n3cnnc3)nc(-n3cnnc3)nc2c1 | 17.5 µM | 19 µM | 15.3 µM |  |  |  |  |  |  |  |  |  |  | 
c1ccc2c(N3CCOCC3)nc(N3CCOCC3)nc2c1 | > 25 µM | 14.6 µM | 18.9 µM |  |  |  |  |  |  |  |  |  |  | 
c1ccc2c(-n3nnc4ccccc43)nc(-n3nnc4ccccc43)nc2c1 | > 25 µM | 15.3 µM | 11 µM |  |  |  |  |  |  |  |  |  |  | 
COc1cc2c(N3CCN(C)CC3)nc(N3CCN(C)CC3)nc2c(OC)c1OC | 21.3 µM | 24.1 µM | > 25 µM |  |  |  |  |  |  |  |  |  |  | 

Now from value to compound, other results behind:

IC50 [1] | IC50 [2] | IC50 [3] | inhibition [12] | inhibition [14] | Compound | Activity [4] | Activity [5] | viability at 5 µM [6] | Activity [7] | Activity [8] | Activity [9] | Activity [10] | Activity [11] | Activity [13]
9.43 µM | 11.5 µM | 15.7 µM |  |  | c1ccc2c(-n3ccnc3)nc(-n3ccnc3)nc2c1 |  |  |  |  |  |  |  |  | 
2.65 µM | 4.25 µM | 9.91 µM | Active | inactive | COc1cc2c(-n3ccnc3)nc(-n3ccnc3)nc2c(OC)c1OC | 6.8% | 9.6% | 33.3% | 6.8% | 50.3% | 79% | 11.3% | Non-toxic | Active
> 25 µM | 18.8 µM | 15.9 µM |  |  | COc1cc2c(N3CCOCC3)nc(N3CCOCC3)nc2c(OC)c1OC |  |  |  |  |  |  |  |  | 
7.25 µM | 3.45 µM | 8.14 µM |  |  | COc1cc2c(-n3nnc4ccccc43)nc(-n3nnc4ccccc43)nc2c(OC)c1OC | 7.7% | 10.3% | 35.9% | 2% | 51.8% | 8.4% | 78.9% | Non-toxic | inactive
13.8 µM | 23.1 µM | > 25 µM |  |  | COc1cc2c(-n3cnnc3)nc(-n3cnnc3)nc2c(OC)c1OC |  |  |  |  |  |  |  |  | 
